Experimental data: patent publication US20250154138A1, “Small Molecule IL-17A Modulators” (BeiGene, Ltd., priority 2022, published 2025)

Columns and labels:
[1] = target: human IL-17A / human IL-17RA (Homo sapiens (Human), UniProt Q16552); experiment: Human IL-17A biochemical assay (HTRF, blocking of IL-17A binding to IL-17RA); details: 0.4 nM IL-17A, 0.3 nM IL-17RA, max compound concentration 10 uM
In short: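 In this time-resolved fluorescence format, the cytokine (0.4 nM) is exposed to compound for 3 h before 0.3 nM receptor is added for 1 h, with all incubations at room temperature in HEPES buffer, pH 7.5. The 620/665 nm signal ratio gives percent inhibition, and IC50 is taken from a 4-parameter curve.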

[2] = test system: IL-17-induced GROα secretion from HT-29 cells; experiment: GROα release assay in human colorectal adenocarcinoma epithelial cell (HT-29, ELISA); assay type: cell-based; details: Homo sapiens, HT-29, 48 h, 10 ng/mL IL-17A, highest concentration 10 μM, read-out: Cellular assay HT29 cell/CXCL1 IC50
In short: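 IC50 values come from four-parameter fits of GROα levels, quantified by ELISA (450 nm, standard curve) in supernatants. Compounds, 4-fold serially diluted from 10 μM, were mixed 15 min with IL-17A (10 ng/mL final) before 48 h incubation with HT-29 cells at 37°C.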

Sequence of human IL-17A / human IL-17RA (Q16552 24-155): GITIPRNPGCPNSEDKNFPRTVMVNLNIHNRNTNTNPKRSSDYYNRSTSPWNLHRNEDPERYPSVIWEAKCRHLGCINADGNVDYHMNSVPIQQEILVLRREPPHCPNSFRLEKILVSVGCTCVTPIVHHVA

Row | Structure (SMILES) | IC50 [1] | IC50 [2]
1 | Cc1nonc1C(=O)N[C@H](C(=O)Nc1ccc2c(c1)CC(N1CC3(CC3)CNC1=O)(C(C)(C)O)C2)C1CCC(F)(F)CC1 (stereo partly drawn) [Example 247, N-((1S)-1-(4,4-difluorocyclohexyl)-2-((2-(2-hydroxypropan-2-yl)-2-(6-oxo-5,7-diazaspiro[2.5]octan-5-yl)-2,3-dihydro-1H-inden-5-yl)amino)-2-oxoethyl)-4-methyl-1,2,5-oxadiazole-3-carboxamide] | 20.9 nM | 40.8 nM
2 | CNC(=O)C1(N2C[C@@H](C(C)C)NC2=O)Cc2ccc(NC(=O)[C@@H](NC(=O)c3nonc3C)C(C3CC3)C3CC3)cc2C1 (stereo partly drawn) [Example 248, N-((2S)-1,1-dicyclopropyl-3-((2-((R)-4-isopropyl-2-oxoimidazolidin-1-yl)-2-(methylcarbamoyl)-2,3-dihydro-1H-inden-5-yl)amino)-3-oxopropan-2-yl)-4-methyl-1,2,5-oxadiazole-3-carboxamide] | 126 nM | 427 nM
3 | Cc1nonc1C(=O)N[C@H](C(=O)Nc1ccc2c(c1)CC(C(=O)Nc1ccccc1F)(N1C[C@@H](C(C)C)NC1=O)C2)C1CCC(F)(F)CC1 (stereo partly drawn) [Example 249, N-((1S)-1-(4,4-difluorocyclohexyl)-2-((2-((2-fluorophenyl)carbamoyl)-2-((R)-4-isopropyl-2-oxoimidazolidin-1-yl)-2,3-dihydro-1H-inden-5-yl)amino)-2-oxoethyl)-4-methyl-1,2,5-oxadiazole-3-carboxamide] | 226 nM | 695 nM
4 | Cc1nonc1C(=O)N[C@H](C(=O)Nc1ccc2c(c1)CC(c1ccc(F)cc1)(N1C[C@@H](C(C)C)NC1=O)C2)C(C1CC1)C1CC1 (stereo partly drawn) [Example 251, N-((2S)-1,1-dicyclopropyl-3-((2-(4-fluorophenyl)-2-((R)-4-isopropyl-2-oxoimidazolidin-1-yl)-2,3-dihydro-1H-inden-5-yl)amino)-3-oxopropan-2-yl)-4-methyl-1,2,5-oxadiazole-3-carboxamide] | 1510 nM | 1510 nM
5 | Cc1nonc1C(=O)N[C@H](C(=O)Nc1ccc2c(c1)CC(c1c[nH]c(C3CC3)n1)(N1C[C@@H](C(C)C)NC1=O)C2)C(C1CC1)C1CC1 (stereo partly drawn) [Example 252, N-((2S)-1,1-dicyclopropyl-3-((2-(2-cyclopropyl-1H-imidazol-4-yl)-2-((R)-4-isopropyl-2-oxoimidazolidin-1-yl)-2,3-dihydro-1H-inden-5-yl)amino)-3-oxopropan-2-yl)-4-methyl-1,2,5-oxadiazole-3-carboxamide] | 829 nM | 1160 nM
6 | Cc1ccccc1NC(=O)C1(N2C[C@@H](C(C)C)NC2=O)Cc2ccc(NC(=O)[C@@H](NC(=O)c3nonc3C)C3CCC(F)(F)CC3)cc2C1 (stereo partly drawn) [Example 253, N-((1S)-1-(4,4-difluorocyclohexyl)-2-((2-((R)-4-isopropyl-2-oxoimidazolidin-1-yl)-2-(o-tolylcarbamoyl)-2,3-dihydro-1H-inden-5-yl)amino)-2-oxoethyl)-4-methyl-1,2,5-oxadiazole-3-carboxamide] | 355 nM | 331 nM
7 | COc1ccccc1NC(=O)C1(N2C[C@@H](C(C)C)NC2=O)Cc2ccc(NC(=O)[C@@H](NC(=O)c3nonc3C)C(C3CC3)C3CC3)cc2C1 (stereo partly drawn) [Example 254, N-((2S)-1,1-dicyclopropyl-3-((2-((R)-4-isopropyl-2-oxoimidazolidin-1-yl)-2-((2-methoxyphenyl)carbamoyl)-2,3-dihydro-1H-inden-5-yl)amino)-3-oxopropan-2-yl)-4-methyl-1,2,5-oxadiazole-3-carboxamide] | 178 nM | 318 nM
8 | Cc1nonc1C(=O)N[C@H](C(=O)Nc1ccc2c(c1)OC(CN1C[C@@H](C(F)(F)F)NC1=O)C2)C(C1CC1)C1CC1 (stereo partly drawn) [Example 255, N-((2S)-1,1-dicyclopropyl-3-oxo-3-((2-(((S)-2-oxo-4-(trifluoromethyl)imidazolidin-1-yl)methyl)-2,3-dihydrobenzofuran-6-yl)amino)propan-2-yl)-4-methyl-1,2,5-oxadiazole-3-carboxamide] | 165 nM | 666 nM
9 | CC(C)n1nccc1C(=O)N[C@H](C(=O)Nc1ccc2c(c1)OC(CN1C[C@@H](C(F)(F)F)NC1=O)C2)C(C1CC1)C1CC1 (stereo partly drawn) [Example 256, N-((2S)-1,1-dicyclopropyl-3-oxo-3-((2-(((S)-2-oxo-4-(trifluoromethyl)imidazolidin-1-yl)methyl)-2,3-dihydrobenzofuran-6-yl)amino)propan-2-yl)-1-isopropyl-1H-pyrazole-5-carboxamide] | 50.2 nM | 82 nM
10 | Cc1nonc1C(=O)N[C@H](C(=O)Nc1ccc2c(c1)OC(CN1C[C@@H](C(F)(F)F)NC1=O)C2)C1CCC(F)(F)CC1 (stereo partly drawn) [Example 257, N-((1S)-1-(4,4-difluorocyclohexyl)-2-oxo-2-((2-(((S)-2-oxo-4-(trifluoromethyl)imidazolidin-1-yl)methyl)-2,3-dihydrobenzofuran-6-yl)amino)ethyl)-4-methyl-1,2,5-oxadiazole-3-carboxamide] | 938 nM | 2500 nM
11 | Cn1nccc1C(=O)N[C@H](C(=O)Nc1ccc2c(c1)OC(CN1C[C@@H](C(F)(F)F)NC1=O)C2)C1CCC(F)(F)CC1 (stereo partly drawn) [Example 258, N-((1S)-1-(4,4-difluorocyclohexyl)-2-oxo-2-((2-(((S)-2-oxo-4-(trifluoromethyl)imidazolidin-1-yl)methyl)-2,3-dihydrobenzofuran-6-yl)amino)ethyl)-1-methyl-1H-pyrazole-5-carboxamide] | 108 nM | 209 nM
12 | Cc1nonc1C(=O)N[C@H](C(=O)Nc1ccc2c(c1)CC(C(=O)Nc1cccc(Cl)c1)(N1C[C@@H](C(C)C)NC1=O)C2)C(C1CC1)C1CC1 (stereo partly drawn) [Example 259, N-((2S)-1-((2-((3-chlorophenyl)carbamoyl)-2-((R)-4-isopropyl-2-oxoimidazolidin-1-yl)-2,3-dihydro-1H-inden-5-yl)amino)-3,3-dicyclopropyl-1-oxopropan-2-yl)-4-methyl-1,2,5-oxadiazole-3-carboxamide] | 1020 nM | 1970 nM
13 | Cc1ccccc1NC(=O)C1(N2C[C@@H](C(C)C)NC2=O)Cc2ccc(NC(=O)[C@@H](NC(=O)c3nonc3C)C(C3CC3)C3CC3)cc2C1 (stereo partly drawn) [Example 261, N-((2S)-1,1-dicyclopropyl-3-((2-((R)-4-isopropyl-2-oxoimidazolidin-1-yl)-2-(o-tolylcarbamoyl)-2,3-dihydro-1H-inden-5-yl)amino)-3-oxopropan-2-yl)-4-methyl-1,2,5-oxadiazole-3-carboxamide] | 58 nM | 143 nM
14 | Cc1nonc1C(=O)N[C@H](C(=O)Nc1ccc2c(c1)CC(C(=O)Nc1ccccc1F)(N1C[C@@H](C(C)C)NC1=O)C2)C(C1CC1)C1CC1 (stereo partly drawn) [Example 262, N-((2S)-1,1-dicyclopropyl-3-((2-((2-fluorophenyl)carbamoyl)-2-((R)-4-isopropyl-2-oxoimidazolidin-1-yl)-2,3-dihydro-1H-inden-5-yl)amino)-3-oxopropan-2-yl)-4-methyl-1,2,5-oxadiazole-3-carboxamide] | 99.4 nM | 447 nM
15 | Cc1nonc1C(=O)N[C@H](C(=O)Nc1ccc2c(c1)CC(C(=O)Nc1ccccc1Cl)(N1C[C@@H](C(C)C)NC1=O)C2)C(C1CC1)C1CC1 (stereo partly drawn) [Example 263, N-((2S)-1-((2-((2-chlorophenyl)carbamoyl)-2-((R)-4-isopropyl-2-oxoimidazolidin-1-yl)-2,3-dihydro-1H-inden-5-yl)amino)-3,3-dicyclopropyl-1-oxopropan-2-yl)-4-methyl-1,2,5-oxadiazole-3-carboxamide] | 97.1 nM | 447 nM
16 | Cc1nonc1C(=O)N[C@H](C(=O)Nc1ccc2c(c1)CC(C#N)(N1C[C@@H](C(C)C)NC1=O)C2)C(C1CC1)C1CC1 (stereo partly drawn) [Example 266, N-((2S)-1-((2-cyano-2-((R)-4-isopropyl-2-oxoimidazolidin-1-yl)-2,3-dihydro-1H-inden-5-yl)amino)-3,3-dicyclopropyl-1-oxopropan-2-yl)-4-methyl-1,2,5-oxadiazole-3-carboxamide] | 912 nM | 659 nM
17 | Cc1nonc1C(=O)N[C@H](C(=O)Nc1ccc2c(c1)CC(C(=O)Nc1ccccc1C(F)F)(N1C[C@@H](C(C)C)NC1=O)C2)C(C1CC1)C1CC1 (stereo partly drawn) [Example 268, N-((2S)-1,1-dicyclopropyl-3-((2-((2-(difluoromethyl)phenyl)carbamoyl)-2-((R)-4-isopropyl-2-oxoimidazolidin-1-yl)-2,3-dihydro-1H-inden-5-yl)amino)-3-oxopropan-2-yl)-4-methyl-1,2,5-oxadiazole-3-carboxamide] | 88.1 nM | 248 nM
18 | Cc1nonc1C(=O)N[C@H](C(=O)Nc1ccc2c(c1)CC(C(=O)Nc1ccc(Cl)cc1)(N1C[C@@H](C(C)C)NC1=O)C2)C(C1CC1)C1CC1 (stereo partly drawn) [Example 269, N-((2S)-1-((2-((4-chlorophenyl)carbamoyl)-2-((R)-4-isopropyl-2-oxoimidazolidin-1-yl)-2,3-dihydro-1H-inden-5-yl)amino)-3,3-dicyclopropyl-1-oxopropan-2-yl)-4-methyl-1,2,5-oxadiazole-3-carboxamide] | 416 nM | 1070 nM
19 | Cc1nonc1C(=O)N[C@H](C(=O)Nc1ccc2c(c1)CC(C(O)C(F)(F)F)(N1CC(C(F)(F)F)NC1=O)C2)C(C1CC1)C1CC1 (stereo partly drawn) [Example 270, N-((2S)-1,1-dicyclopropyl-3-oxo-3-((2-(2-oxo-4-(trifluoromethyl)imidazolidin-1-yl)-2-(2,2,2-trifluoro-1-hydroxyethyl)-2,3-dihydro-1H-inden-5-yl)amino)propan-2-yl)-4-methyl-1,2,5-oxadiazole-3-carboxamide] | 200 nM | 350 nM
